Among the data in US20260092074A1, “Annelated Pyridines as Steroidogenesis Inhibitors, Preparation Method and Use Thereof” (Guangzhou Vinnocent Pharmaceutical Limited, priority 2022, published 2026) are IC50 values, retold here.

Each structure is given as a SMILES string.

One assay addresses T1, human CYP11B1 (Homo sapiens, UniProt P15538).
T1 construct: expressed in transfected cells
T1 sequence (P15538 25-503): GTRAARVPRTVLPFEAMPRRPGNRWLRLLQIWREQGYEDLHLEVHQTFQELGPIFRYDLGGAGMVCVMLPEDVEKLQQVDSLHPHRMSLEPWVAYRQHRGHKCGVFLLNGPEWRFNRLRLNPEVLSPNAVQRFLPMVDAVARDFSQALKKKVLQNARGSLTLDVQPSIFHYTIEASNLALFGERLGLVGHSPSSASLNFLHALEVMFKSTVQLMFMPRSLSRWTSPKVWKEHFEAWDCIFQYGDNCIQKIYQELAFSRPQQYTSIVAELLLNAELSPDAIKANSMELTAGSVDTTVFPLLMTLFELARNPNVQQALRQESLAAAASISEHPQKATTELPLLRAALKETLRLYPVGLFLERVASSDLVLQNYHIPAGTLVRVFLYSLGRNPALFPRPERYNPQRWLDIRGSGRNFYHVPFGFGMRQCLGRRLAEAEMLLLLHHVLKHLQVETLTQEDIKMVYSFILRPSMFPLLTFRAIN
The assay is described as follows: Inhibition of hCYP11B1 in transfected V79 cells. It counts as cell-based. The settings on record: hamster V79 cells expressing human CYP11B1; substrate 11-deoxycortisol 200 nM. As for the experimental part:
(§1) Genes of human CYP11B1 and rat NADPH-P450 reductase were transfected into hamster V79 cells using a lentivirus vector, and stably-expressing cell lines were selected by taking advantages of the associated puromycin-resistance gene. Cultured cells were diluted and seeded in a 96-well plate with an amount of approximately 10,000 per well. After pre-incubation with suitable concentrations of the test compounds for 2 hours, 11-deoxycortisol of 200 nM was added as the substrate to initiate the catalytic reaction. After further incubation for 30 minutes, it was quenched with ethyl acetate. Subsequently, the substrate and product(s) were quantified using LC-MS/MS or HPLC at 260 nm, and the IC50 values were calculated according to inhibitory percentage.

Another assay concerns the target T2, human CYP11B2 (Homo sapiens, UniProt P19099).
T2 construct: expressed in transfected cells
T2 sequence (P19099 25-503): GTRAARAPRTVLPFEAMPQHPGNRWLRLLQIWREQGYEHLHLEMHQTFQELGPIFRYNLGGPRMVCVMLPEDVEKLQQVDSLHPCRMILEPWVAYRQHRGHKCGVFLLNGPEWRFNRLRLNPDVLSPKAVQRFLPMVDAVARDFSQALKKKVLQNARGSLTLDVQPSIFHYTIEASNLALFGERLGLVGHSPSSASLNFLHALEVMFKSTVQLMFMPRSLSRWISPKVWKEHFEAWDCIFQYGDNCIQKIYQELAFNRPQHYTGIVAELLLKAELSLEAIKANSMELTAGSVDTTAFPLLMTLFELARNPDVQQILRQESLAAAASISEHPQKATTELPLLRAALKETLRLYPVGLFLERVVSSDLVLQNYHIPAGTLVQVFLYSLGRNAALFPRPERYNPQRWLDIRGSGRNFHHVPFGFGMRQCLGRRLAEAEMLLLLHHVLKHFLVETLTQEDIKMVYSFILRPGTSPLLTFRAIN
Kind of assay: Inhibition of hCYP11B2 in transfected V79 cells. In kind it is cell-based. The settings on record: hamster V79 cells expressing human CYP11B2; substrate 11-deoxycorticosterone 200 nM. The protocol:
as §1, with “CYP11B2” for “CYP11B1”, “11-deoxycorticosterone” for “11-deoxycortisol”

Turning to `CCC(=O)N[C@@H]1CCCc2c(-c3ccc4c(c3)CCC(=O)N4C)cncc21` [Baxdrostat, reference compound], the IC50 at human CYP11B1 was determined as 3060 nM; on human CYP11B2, 127 nM.
The matching figures for `Cc1ccc(S(=O)(=O)N2CCc3c(-c4ccc(C#N)cc4)cncc32)cc1` [C1, 4-(1-Tosyl-2,3-dihydro-1H-pyrrolo[2,3-c]pyridin-4-yl)benzonitrile]: 0.56 nM and 0.24 nM.
The corresponding values for `N#Cc1ccc(-c2cncc3c2CCN3S(=O)(=O)c2ccc([N+](=O)[O-])cc2)cc1` [C2, 4-(1-((4-Nitrophenyl)sulfonyl)-2,3-dihydro-1H-pyrrolo[2,3-c]pyridin-4-yl)benzonitrile] are 0.35 nM and 0.12 nM.
Take `COc1ccc(S(=O)(=O)N2CCc3c(-c4ccc(C#N)cc4)cncc32)cc1` [C3, 4-(1-((4-Methoxyphenyl)sulfonyl)-2,3-dihydro-1H-pyrrolo[2,3-c]pyridin-4-yl)benzonitrile]: the IC50 on human CYP11B1 was 0.2 nM; at human CYP11B2, 0.16 nM.
On to `N#Cc1ccc(-c2cncc3c2CCN3S(=O)(=O)c2ccc(C(F)(F)F)cc2)cc1` [C4, 4-(1-((4-(Trifluoromethyl)phenyl)sulfonyl)-2,3-dihydro-1H-pyrrolo[2,3-c]pyridin-4-yl)benzonitrile], for which the half-maximal inhibitory concentration (IC50) is 0.36 nM on human CYP11B1 and 0.64 nM at human CYP11B2.
The matching figures for `N#Cc1ccc(-c2cncc3c2CCN3S(=O)(=O)c2ccc(Cl)nc2)cc1` [C5, 4-(1-((6-Chloropyridin-3-yl)sulfonyl)-2,3-dihydro-1H-pyrrolo[2,3-c]pyridin-4-yl)benzonitrile]: 1.1 nM and 0.4 nM.
Turning to `N#Cc1ccc(-c2cncc3c2CCN3S(=O)(=O)c2cccc(F)c2)cc1` [C6, 4-(1-((3-Fluorophenyl)sulfonyl)-2,3-dihydro-1H-pyrrolo[2,3-c]pyridin-4-yl)benzonitrile], the IC50 at human CYP11B1 was found to be 1.2 nM; against human CYP11B2, 0.3 nM.
In the case of `N#Cc1ccc(-c2cncc3c2CCN3S(=O)(=O)c2ccc(F)cc2)cc1` [C7, 4-(1-((4-Fluorophenyl)sulfonyl)-2,3-dihydro-1H-pyrrolo[2,3-c]pyridin-4-yl)benzonitrile], the half-inhibitory concentration (IC50) at human CYP11B1 came to 1.9 nM; against human CYP11B2, 0.15 nM.
With `Cc1cccc(S(=O)(=O)N2CCc3c(-c4ccc(C#N)cc4)cncc32)c1` [C8, 4-(1-(m-Tolylsulfonyl)-2,3-dihydro-1H-pyrrolo[2,3-c]pyridin-4-yl)benzonitrile], the IC50 was 0.25 nM against human CYP11B1 and 1.4 nM on human CYP11B2.
For `N#Cc1ccc(-c2cncc3c2CCN3S(=O)(=O)c2cccc([N+](=O)[O-])c2)cc1` [C9, 4-(1-((3-Nitrophenyl)sulfonyl)-2,3-dihydro-1H-pyrrolo[2,3-c]pyridin-4-yl)benzonitrile], the figures for the IC50 on human CYP11B1 and against human CYP11B2 were 0.5 nM and 0.3 nM, respectively.
With `N#Cc1ccc(-c2cncc3c2CCN3S(=O)(=O)c2cccnc2)cc1` [C10, 4-(1-(Pyridin-3-ylsulfonyl)-2,3-dihydro-1H-pyrrolo[2,3-c]pyridin-4-yl)benzonitrile], the IC50 against human CYP11B1 was 1.7 nM; at human CYP11B2 it was 1.3 nM.
The corresponding values for `N#Cc1ccc(-c2cncc3c2CCN3S(=O)(=O)c2cccc3cccnc23)cc1` [C11, 4-(1-(Quinolin-8-ylsulfonyl)-2,3-dihydro-1H-pyrrolo[2,3-c]pyridin-4-yl)benzonitrile] are 0.7 nM and 1 nM.
Take `N#Cc1ccc(-c2cncc3c2CCN3S(=O)(=O)c2ccc3ccccc3c2)cc1` [C12, 4-(1-(Naphthalen-2-ylsulfonyl)-2,3-dihydro-1H-pyrrolo[2,3-c]pyridin-4-yl)benzonitrile]: the figures for the IC50 on human CYP11B1 and on human CYP11B2 were 0.3 nM and 0.17 nM, respectively.
The corresponding values for `N#Cc1ccc(-c2cncc3c2CCN3S(=O)(=O)c2ccc(Cl)cc2)cc1` [C13, 4-(1-((4-Chlorophenyl)sulfonyl)-2,3-dihydro-1H-pyrrolo[2,3-c]pyridin-4-yl)benzonitrile] are 0.2 nM and 0.6 nM.
Turning to `N#Cc1ccc(-c2cncc3c2CCN3S(=O)(=O)c2cccc(Cl)c2)cc1` [C14, 4-(1-((3-Chlorophenyl)sulfonyl)-2,3-dihydro-1H-pyrrolo[2,3-c]pyridin-4-yl)benzonitrile], the IC50 worked out at 0.9 nM on human CYP11B1 and 0.5 nM against human CYP11B2.
Turning to `N#Cc1ccc(-c2cncc3c2CCN3S(=O)(=O)c2ccc(C#N)cc2)cc1` [C15, 4-((4-(4-Cyanophenyl)-2,3-dihydro-1H-pyrrolo[2,3-c]pyridin-1-yl)sulfonyl)benzonitrile], the IC50 at human CYP11B1 turned out to be 0.16 nM; against human CYP11B2, 0.28 nM.
For `N#Cc1ccc(-c2cncc3c2CCN3S(=O)(=O)c2cccc(C#N)c2)cc1` [C16, 3-((4-(4-Cyanophenyl)-2,3-dihydro-1H-pyrrolo[2,3-c]pyridin-1-yl)sulfonyl)benzonitrile], the figures for the IC50 on human CYP11B1 and against human CYP11B2 were 0.18 nM and 1.5 nM, respectively.
With `N#Cc1ccc(-c2cncc3c2CCN3S(=O)(=O)c2cccs2)cc1` [C17, 4-(1-(Thiophen-2-ylsulfonyl)-2,3-dihydro-1H-pyrrolo[2,3-c]pyridin-4-yl)benzonitrile], the concentration for half-maximal inhibition (IC50) came to 7.8 nM on human CYP11B1 and 3.5 nM on human CYP11B2.
The matching figures for `N#Cc1ccc(-c2cncc3c2CCN3S(=O)(=O)c2cccc3ccccc23)cc1` [C18, 4-(1-(Naphthalen-1-ylsulfonyl)-2,3-dihydro-1H-pyrrolo[2,3-c]pyridin-4-yl)benzonitrile]: 0.61 nM and 0.69 nM.
Take `COc1cccc(S(=O)(=O)N2CCc3c(-c4ccc(C#N)cc4)cncc32)c1` [C19, 4-(1-((3-Methoxyphenyl)sulfonyl)-2,3-dihydro-1H-pyrrolo[2,3-c]pyridin-4-yl)benzonitrile]: the IC50 on human CYP11B1 came out at 9.5 nM; against human CYP11B2, 4.3 nM.
Regarding `N#Cc1ccc(-c2cncc3c2CCN3S(=O)(=O)c2cccc(C(F)(F)F)c2)cc1` [C20, 4-(1-((3-[Trifluoromethyl]phenyl)sulfonyl)-2,3-dihydro-1H-pyrrolo[2,3-c]pyridin-4-yl)benzonitrile], the IC50 at human CYP11B1 was determined as 0.4 nM; on human CYP11B2 it was 1.8 nM.
The matching figures for `N#Cc1ccc(-c2cncc3c2CCN3S(=O)(=O)c2ccccc2)cc1` [C21, 4-(1-(Phenylsulfonyl)-2,3-dihydro-1H-pyrrolo[2,3-c]pyridin-4-yl)benzonitrile]: 0.01 nM and 0.01 nM.
Consider `N#Cc1ccc(-c2cncc3c2CCN3C(=O)c2ccc(C(F)(F)F)cc2)cc1` [C22, 4-(1-(4-(Trifluoromethyl)benzoyl)-2,3-dihydro-1H-pyrrolo[2,3-c]pyridin-4-yl)benzonitrile], for which the IC50 on human CYP11B1 is 112 nM; at human CYP11B2, 2 nM.
The corresponding values for `N#Cc1ccc(-c2cncc3c2CCN3C(=O)c2cccc(C(F)(F)F)c2)cc1` [C23, 4-(1-(3-(Trifluoromethyl)benzoyl)-2,3-dihydro-1H-pyrrolo[2,3-c]pyridin-4-yl)benzonitrile] are 310 nM and 7 nM.
Take `COc1ccc(C(=O)N2CCc3c(-c4ccc(C#N)cc4)cncc32)cc1` [C24, 4-(1-(4-Methoxybenzoyl)-2,3-dihydro-1H-pyrrolo[2,3-c]pyridin-4-yl)benzonitrile]: the IC50 against human CYP11B1 worked out at 124 nM; against human CYP11B2 it was 2.3 nM.
With `N#Cc1ccc(-c2cncc3c2CCN3C(=O)c2ccc(F)cc2)cc1` [C25, 4-(1-(4-Fluorobenzoyl)-2,3-dihydro-1H-pyrrolo[2,3-c]pyridin-4-yl)benzonitrile], the IC50 is 988 nM at human CYP11B1 and 30 nM against human CYP11B2.
With `COc1cccc(C(=O)N2CCc3c(-c4ccc(C#N)cc4)cncc32)c1` [C26, 4-(1-(3-Methoxybenzoyl)-2,3-dihydro-1H-pyrrolo[2,3-c]pyridin-4-yl)benzonitrile], the results for the IC50 at human CYP11B1 and on human CYP11B2 were 356 nM and 2.3 nM, respectively.

The IC50 is the concentration that inhibits the measured activity by half. Low readings indicate inhibition by little substance, high ones a need for much substance.
